Key:
THP-1 cells = details: THP1; corresponds to 60 μg dose of loaded particles; cited from earlier work
[1] = tested on: IL-6 production in cartilage plugs; assay: IL-6 ELISA in bovine knee ex vivo inflammatory model; details: IL-1β stimulated aggrecan depleted plugs, treatment every two days
Description: Cartilage plugs were obtained from three month old bovine knee joints obtained from an abattoir within 24 hours of slaughter (Dutch Valley Veal, South Holland, Ill., USA). The plugs were removed from the load bearing region of the femoral condyle using a 3 mm diameter cork borer. They were then washed three times in serum free medium and equilibrated for three days in 5% FBS supplemented media. Osteoarthritis (OA)-like conditions were simulated by removal of native aggrecan using a previously described protocol. Briefly, plugs were treated with 0.5% (w/v) trypsin in HBSS for 3 hours at 37° C. After trypsin treatment plugs were washed three times in HBSS and incubated with 20% FBS to inactivate residual trypsin activity. Inflammation was initiated in the plugs by treating with 20 ng/mL II-1β. Nanoparticle treatments as specified in Table 1, were added after day two of culture. Fresh IL-1β and nanoparticles were added every two days for an eight day culture period. Media aliquots were collected and stored in −80° C. till further analysis.
IL-6 production was determined with a bovine IL-6 ELISA development kit (Thermo Scientific, Rockford, Ill., USA). Capture antibody was coated overnight onto Nunc MaxiSorp 96-well plates. […] The plate was read on absorbance plate reader at 450 nm with a correction at 550 nm. […]

[2] = previously reported; cited from earlier work
[3] = KAFAK degradability assay in serum; assay type: in vitro ADME; details: for recovery at 12 hours / Integral of KAFAK Peak between 30-31% Acetonitrile: 12 hours at 37° C., then 24 hours at 4° C. (nanoparticles: purify & release in 2x salt)
Description: Samples tested include: peptide alone, serum alone, peptide in serum, and KAFAK loaded 5% AMPS nanoparticles in serum. Each sample volume also contained 0.5× PBS except when stated. Samples containing peptide initially contained 0.5 mg of peptide alone or 1.12 mg of loaded 5% AMPS particles with an equivalent amount of 0.5 mg peptide. Samples with serum were 0.5× serum and 0.5×PBS. Samples without serum were 0.5×PBS and 0.5× MilliQ water. Peptide alone, serum alone, peptide in serum, loaded nanoparticles alone, and loaded nanoparticles in serum were incubated for 12 hours at 37° C. on a shaker. After the 12 hour incubation, samples not containing nanoparticles were placed in the fridge at 4° C. for 24 hours before evaluation. Samples containing nanoparticles were centrifuged for 2 hours at room temperature at 30,000 rpm in an Optima L-90k Ultracentrifuge (Beckman Coulter, Indianapolis, Ind., USA). The nanoparticle pellet was briefly washed with MilliQ water and then resuspended in solution of 0.5×PBS and 0.5× MilliQ water. Samples were then placed in the fridge for 24 hours. Before the 24 hour nanoparticle sample was placed in the fridge to incubate, but after the pellet was dissolved, an additional amount of 0.257 molar concentration of NaCl was added to induce peptide release. This brought the final NaCl concentration to 0.342 molar or twice normal salt concentration in PBS. Additional NaCl was added to facilitate total release by introducing additional counter ions. Samples were evaluated by reverse phase chromotography on a FPLC (AKTA Explorer, GE Healthcare, Pittsburgh Pa., USA) with a 22/250 C18 prep-scale column (Grace Davidson, Deerfield, Ill., USA) and an acetonitrile gradient with 0.1% trifluoroacetic acid. Peptide was quantified by integrating the area under the peak of the FPLC. Peptide molecular weight was confirmed by time of flight MALDI mass spectrometry with a 4800 Plus MALDI TOF/TOF Analyzer (Applied Biosystems, Foster City, Calif., USA).

[4] = tested on: citrated bovine whole blood; assay: Activated partial thromboplastin time (whole blood coagulation time); details: for Whole Blood Coagulation Time (s) Average (n = 3): nanoparticles 1.5 mg/ml final concentration in blood, collagen 6 mg/ml, heparin .001 mg/ml; for effect on coagulation: whole blood, nanoparticles 1.5 mg/ml
Description: Activated partial thromboplastin time (aPTT) was measured using a Hemochron® Response whole blood coagulation system. 2 ml citrated bovine whole blood and 200 μL nanoparticles in phosphate buffered saline (PBS) pH 7.4 (1.5 mg/ml final concentration in blood) were added to Hemochron® tubes containing colloidal kaolin activating agent and 0.02% thimerosal preservative agent. PBS was calcium and magnesium free. The tubes were then measured and aPTT was recorded. The aPTT for each sample was measured in triplicate. […] Louis, Mo., USA). Measurements with heparin were stopped after 1000 seconds.
As part of a preliminary assessment of utilizing poly(NIPAm-MBA-AMPS) as a blood contacting drug delivery vehicle, whole blood studies were done to determine the hemocompatibility of this system.

blood = assay: Hemolysis assay ASTM F756; assay type: cell-based; details: nanoparticles 1.5 mg/ml, 37° C., 3 hours; Triton X-100 .01% by volume
Description: After 1000 seconds, experiments in the presence of heparin were stopped due to lack of clotting. Hemolytic assay ASTM standard protocol F756 was used to check if hemolysis occurred upon the addition of poly(NIPAm-MBA-AMPS) to the blood.
Hemolysis assays were performed following ASTM F756 with a BioSpec-1601 spectrophotometer (Shimadzu, Columbia, Md., USA). Determination of total blood hemoglobin was accomplished by using Drabkin's reagent and measuring the absorbance of free hemoglobin in solution at 540 nm. The total blood hemoglobin concentration was used to adjust the hemoglobin content of the blood sample to 10 mg±1 mg by adding blood and an equivalent amount of IX PBS solution. Percent hemolysis was normalized by dividing total hemolysis determined by a 0.01% v/v of Triton X-100, subtracting the absorbance of blood only, and setting absorbance of PBS to zero. Blood, 1 ml, was incubated with 100 μl of a 1.5 mg/ml solution of the nanoparticles in PBS at 37° C. for three hours under gentle shaking. After three hours samples were centrifuged at 750 g for 15 minutes. Supernatant was removed, added 1:1 to equivalent volume of Drabkins reagent, and incubated for 15 minutes before measurement. Absorbance measurements at 540 nm were then recorded using a spectrophotometer.

## CC(C)C[C@H](NC(=O)[C@H](C)NC(=O)[C@H](CCCCN)NC(=O)[C@H](CCCNC(=N)N)NC(=O)[C@H](Cc1ccc(O)cc1)NC(=O)[C@H](CC(C)C)NC(=O)[C@H](CCCNC(=N)N)NC(=O)[C@H](C)NC(=O)[C@H](C)NC(=O)[C@H](CC(C)C)NC(=O)[C@H](CCCCN)NC(=O)[C@H](C)NC(=O)[C@H](Cc1ccccc1)NC(=O)[C@H](C)NC(=O)[C@@H](N)CCCCN)C(=O)N[C@@H](C)C(=O)N[C@@H](CCCNC(=N)N)C(=O)N[C@@H](CCC(N)=O)C(=O)N[C@@H](CC(C)C)C(=O)NCC(=O)N[C@H](C(=O)N[C@@H](C)C(=O)N[C@@H](C)C(N)=O)C(C)C [KAFAK]
THP-1 cells
  upper toxicity limit: 30 µM
[1]
  effect on IL-6 production: lack of therapeutic activity
[2]
  serum half-life: less than 12 hours
[3]; 0.5× PBS and 0.5× MilliQ water (without serum), without serum
  recovery at 12 hours: 100%
[3]; in serum
  Integral of KAFAK Peak between 30-31% Acetonitrile: 0 mAU * ml
  recovery at 12 hours: 0%
[3]; serum, 37° C., without a carrier
  time within which KAFAK peptide degraded: ≤ 12 h
[3]; without serum
  Integral of KAFAK Peak between 30-31% Acetonitrile: 593.3 mAU * ml

## Collagen
[4]
  Whole Blood Coagulation Time (s) Average (n = 3): 26 s
  effect on coagulation: induce clotting

## Heparin
[4]
  Whole Blood Coagulation Time (s) Average (n = 3): >1000 s
  effect on coagulation: inhibit coagulation

## Triton X-100
blood
  Normalized Whole Blood % Hemolysis Average (n = 3): 100%

From patent US10034839B2, “Compositions and methods for delivery of kinase inhibiting peptides” (PURDUE RESEARCH FOUNDATION, priority 2012, dated 2018)
